Measurements taken from ChEMBL document CHEMBL1201862, “PubChem BioAssay data set” (2004).
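Values below derive from 48-hour exposures of cells grown in 96-well plates, with endpoints linearly interpolated between the two concentrations bracketing the appropriate inhibition level. The concentration for 50% growth inhibition is given as GI50.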 Calls of active or inactive are those of the source. No stated cut-off is given here; in the data, active = GI50 up to about 1.1 µM and inactive = higher.

How the values were obtained:
Test in all cases: inhibition of tumour cell growth, NCI panel, 48 h
CAKI-1 = system: CAKI-1
NCI-H460 = system: NCI-H460
RXF 393 = system: RXF 393
OVCAR-3 = system: OVCAR-3
HCC 2998 = system: HCC 2998
NCI-H23 = system: NCI-H23
MDA-MB-231 = system: MDA-MB-231
SK-MEL-2 = system: SK-MEL-2
KM12 = system: KM12
SNB-75 = system: SNB-75
SF-539 = system: SF-539
SF-295 = system: SF-295
HT-29 = system: HT-29
U-251 = system: U-251
MCF7 = system: MCF7
Hs-578T = system: Hs-578T
SF-268 = system: SF-268
HCT-116 = system: HCT-116
SK-MEL-28 = system: SK-MEL-28
SN12C = system: SN12C

Measured: GI50

CCOC(=O)c1nc2ccc(C(F)(F)F)cc2nc1NCc1ccc(F)cc1
inactive: CAKI-1 41.5 µM | NCI-H460 19.2 µM | RXF 393 37.2 µM | OVCAR-3 50.2 µM | HCC 2998 24.8 µM | NCI-H23 27.5 µM | MDA-MB-231 32.1 µM | SK-MEL-2 59.4 µM | KM12 58.7 µM | SNB-75 91.4 µM | SF-539 80 µM | SF-295 75.5 µM | HT-29 35.4 µM | U-251 35.7 µM | MCF7 30.9 µM | Hs-578T 21.5 µM | SF-268 11.5 µM | HCT-116 35.9 µM | SK-MEL-28 44 µM | SN12C 28.8 µM

COc1ccc2c3c([nH]c2c1)[C@H](C=C(C)C)N1C(=O)[C@@H]2CCCN2C(=O)[C@@H]1C3 [FUMITREMORGIN]
inactive: CAKI-1 > 100 µM | NCI-H460 > 100 µM | RXF 393 38.1 µM | OVCAR-3 > 100 µM | HCC 2998 37.2 µM | NCI-H23 > 100 µM | MDA-MB-231 70.8 µM | SK-MEL-2 > 100 µM | KM12 > 100 µM | SNB-75 21.7 µM | SF-539 29.6 µM | SF-295 51.3 µM | HT-29 > 100 µM | U-251 73.1 µM | MCF7 > 100 µM | Hs-578T 50.9 µM | SF-268 44 µM | HCT-116 > 100 µM | SK-MEL-28 22.2 µM | SN12C > 100 µM
